Assay results as given in patent publication US20150141411A1, “SUBSTITUTED 3,4-DIHYDRO-2H-PYRIDO[1,2-A]PYRAZINE-1,6-DIONE DERIVATIVES USEFUL FOR THE TREATMENT OF (INTER ALIA) ALZHEIMER'S DISEASE” (Janssen Pharmaceuticals, Inc., priority 2012, published 2015).

Tests used:
γ-secretase [1] = molecular target: T1, γ-secretase (Homo sapiens, UniProt P49768); experiment: Screening for γ-secretase-modulating activity: Aβtotal in supernatant of SKNBE2 cells carrying hAPP 695 wild type (Alphalisa); format: cell-based; settings: SKNBE2 human neuroblastoma cells carrying hAPP 695 wild type, overnight incubation, Aβtotal in cell supernatant
T1 construct: endogenous in cells; host or cells: SKNBE2 human neuroblastoma cells (carrying hAPP 695 wild type as substrate)
Method in brief: (§1)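 SKNBE2 neuroblastoma cells expressing wild-type hAPP 695 plated at 10^4 cells/well in Ultraculture with test compound, incubated overnight at 37° C. Aβ42 (C-terminal/N-terminal antibody pair) and Aβtotal (N-terminal/4G8 pair) in supernatant quantified by AlphaLISA. IC50 from 4-parameter fit of percent of compound-free control.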

γ-secretase [2] = molecular target: T1, γ-secretase; experiment: Screening for γ-secretase-modulating activity: Aβ42 in supernatant of SKNBE2 cells carrying hAPP 695 wild type (Alphalisa); format: cell-based; settings: SKNBE2 human neuroblastoma cells carrying hAPP 695 wild type, overnight incubation, Aβ42 in cell supernatant
Method in brief: as §1

melting point [°C]	IC50 (γ-secretase [1]) [nM]	IC50 (γ-secretase [2]) [nM]	SMILES
248.6	> 10000	> 10000	Cc1cn(-c2ccc3n(c2=O)CCN(c2cccc(C(F)(F)F)c2C)C3=O)cn1 [compound 57]
199.4	> 10000	830	Cc1cn(-c2ccc3n(c2=O)CCN(Cc2cccc(C(F)(F)F)c2C)C3=O)cn1 [compound 58]
140.2	> 10000	560	COc1ccc(CN2C(=O)c3ccc(-n4cnc(C)c4)c(=O)n3C[C@H]2C)cc1C(F)(F)F [compound 67]
132.4	> 10000	190	COc1cc(CN2C(=O)c3ccc(-n4cnc(C)c4)c(=O)n3C[C@H]2C)cc(C(F)(F)F)c1 [compound 68]
177	> 10000	1020	COc1ccc(CN2CCn3c(ccc(-n4cnc(C)c4)c3=O)C2=O)cc1C(F)(F)F [compound 69]
108.5	> 10000	580	Cc1cn(-c2ccc3n(c2=O)C[C@@H](C)N(Cc2cc(C(F)(F)F)ccc2F)C3=O)cn1 [compound 70]
227.4	> 10000	2570	Cc1cn(-c2ccc3n(c2=O)CCN(Cc2ccc(F)cc2C)C3=O)cn1 [compound 73]
163.4	> 10000	380	Cc1cn(-c2ccc3n(c2=O)CCN(Cc2cccc(OC(F)(F)F)c2)C3=O)cn1 [compound 74]
214.1	> 10000	980	Cc1cn(-c2ccc3n(c2=O)CCN(Cc2ccc(OC(F)(F)F)cc2C)C3=O)cn1 [compound 75]
108.2	> 10000	230	Cc1cn(-c2ccc3n(c2=O)C[C@@H](C)N(Cc2cccc(N4CCCCC4)c2)C3=O)cn1 [compound 84]
136.5	> 10000	1860	Cc1cn(-c2cc(Cl)c3n(c2=O)CCN(Cc2cccc(-c4ccccc4)c2)C3=O)cn1 [compound 88]
146.5	> 10000	> 10000	Cc1cncn1-c1ccc2n(c1=O)CCN(Cc1ccccc1)C2=O [compound 89]
138 to 143	> 10000	70	Cc1cn(-c2ccc3n(c2=O)CCN(Cc2cccc(-c4ccc(F)cc4C(F)(F)F)c2)C3=O)cn1 [compound 90]
192.2	> 10000	6760	Cc1cn(-c2ccc3n(c2=O)CCN(Cc2ccc4c(c2)OCCCO4)C3=O)cn1 [compound 93]
181.6	> 10000	7590	Cc1cn(-c2ccc3n(c2=O)CCN(Cc2cccc(N4CCOCC4)c2)C3=O)cn1 [compound 95]
163.6	> 10000	760	Cc1cn(-c2ccc3n(c2=O)CCN(Cc2cccc(N4CCCCC4)c2)C3=O)cn1 [compound 96]
207.8	> 10000	440	Cc1cn(-c2ccc3n(c2=O)CCN(Cc2cccc(N4CCCCC4)c2C)C3=O)cn1 [compound 97]
167.4	> 10000	760	Cc1cn(-c2ccc3n(c2=O)CCN(Cc2ccccc2N2CCCCC2)C3=O)cn1 [compound 100]
121.5	> 10000	740	Cc1cn(-c2ccc3n(c2=O)CCN(Cc2cccc(C4CC4)c2)C3=O)cn1 [compound 101]
222.2	> 10000	> 10000	Cc1cn(-c2ccc3n(c2=O)CCN(c2ccccc2C)C3=O)cn1 [compound 102]
176.8	> 10000	2450	Cc1cn(-c2ccc3n(c2=O)CCN(CCC2COc4ccccc4O2)C3=O)cn1 (stereo not drawn) [compound 103]
253.5	> 10000	2820	Cc1cn(-c2ccc3n(c2=O)CCN(C2CCc4c2cccc4C(F)(F)F)C3=O)cn1 (stereo not drawn) [compound 105]
189.4	> 10000	720	Cc1cn(-c2ccc3n(c2=O)CCN(C2CCCc4ccc(C(F)(F)F)cc42)C3=O)cn1 (stereo not drawn) [compound 106]
257.3	> 10000	2450	Cc1cn(-c2ccc3n(c2=O)CCN(C2CCCc4c2cccc4C(F)(F)F)C3=O)cn1 (stereo not drawn) [compound 107]

melting point [°C]	IC50 (γ-secretase [1]) [nM]	IC50 (γ-secretase [2]) [nM]	SMILES
136.1	> 10000	400	Cc1cn(-c2ccc3n(c2=O)C[C@@H](C)N(Cc2ccc4c(c2)OC(F)(F)O4)C3=O)cn1 [compound 113]
101.4	> 10000	140	Cc1cn(-c2ccc3n(c2=O)C[C@@H](C)N(Cc2ccc4scc(Br)c4c2)C3=O)cn1 [compound 115]
151.2	> 10000	> 10000	COc1cccc(CN2CCn3c(ccc(-n4cnc(C)n4)c3=O)C2=O)c1 [compound 119]
194.9	> 10000	6170	Cc1ncn(-c2ccc3n(c2=O)CCN(Cc2cccc(C(F)(F)F)c2)C3=O)n1 [compound 120]
173.4	> 10000	380	Cc1cn(-c2ccc3n(c2=O)CCCN(Cc2ccc(Cl)c(Cl)c2)C3=O)cn1 [compound 121]
136.5	> 10000	2340	Cc1cn(-c2ccc3n(c2=O)C[C@@H](C)N(Cc2ccccc2)C3=O)cn1 [compound 124]
170.7	> 10000	200	Cc1cn(-c2ccc3n(c2=O)C[C@@H](C)N(Cc2cc(Cl)cc(Cl)c2)C3=O)cn1 [compound 131]
160.9	> 10000	510	Cc1ncn(-c2ccc3n(c2=O)CC(C)N(Cc2cc(C(F)(F)F)cc(C(F)(F)F)c2)C3=O)n1 (stereo not drawn) [compound 155]
147.7	8710	2040	Cc1cn(-c2c(Br)cc3n(c2=O)C[C@@H](C)N(Cc2cc(C(F)(F)F)cc(C(F)(F)F)c2)C3=O)cn1 [compound 157]
171.7	> 10000	190	Cc1cn(-c2ccc3n(c2=O)CCN(Cc2cc(OC(C)C)cc(C(F)(F)F)c2)C3=O)cn1 [compound 160]
225.6	> 10000	1410	Cc1cn(-c2ccc3n(c2=O)CCN(C(C)c2cc(F)cc(C(F)(F)F)c2)C3=O)cn1 (stereo not drawn) [compound 168]
182.3	> 10000	250	Cc1cn(-c2ccc3n(c2=O)CCN(C(C)Cc2cc(C(F)(F)F)cc(C(F)(F)F)c2)C3=O)cn1 (stereo not drawn) [compound 172]
187	7410	20	Cc1cn(-c2ccc3n(c2=O)C[C@@H](C)N(Cc2cn(C)c4cc(F)c(Cl)cc24)C3=O)cn1 [compound 196]
181	> 10000	20	Cc1cn(-c2ccc3n(c2=O)C[C@@H](C)N(Cc2cn(C(C)C)c4cc(Br)ccc24)C3=O)cn1 [compound 200]
161	> 10000	50	Cc1cn(-c2ccc3n(c2=O)C[C@@H](C)N(Cc2cn(C)c4cc(C(F)(F)F)ccc24)C3=O)cn1 [compound 228]
129	> 10000	130	Cc1cn(-c2ccc3n(c2=O)C[C@@H](C)N(CCc2cccc(C(F)(F)F)c2C)C3=O)cn1 [compound 229]
192	> 10000	210	Cc1cn(-c2ccc3n(c2=O)C[C@@H](C)N(CCc2cc(Cl)ccc2Cl)C3=O)cn1 [compound 230]
148	> 10000	210	Cc1cn(-c2ccc3n(c2=O)C[C@@H](C)N(CCc2cc(C(F)(F)F)ccc2F)C3=O)cn1 [compound 232]
193	> 10000	260	COc1ccc(Cl)cc1CCN1C(=O)c2ccc(-n3cnc(C)c3)c(=O)n2C[C@H]1C [compound 233]
150	6000	20	CCn1cc(CN2C(=O)c3ccc(-n4cnc(C)c4)c(=O)n3C[C@H]2C)c2cc(OC)c(Cl)cc21 [compound 251]
217	6000	20	Cc1cn(-c2ccc3n(c2=O)CCN(Cc2cn(C)c4cc(Cl)c(Cl)cc24)C3=O)cn1 [compound 254]
265	3000	10	Cc1cn(-c2ccc3n(c2=O)C[C@@H](C)N(Cc2cn(C)c4cc(Cl)c(Cl)cc24)C3=O)cn1 [compound 255]
230	6000	20	Cc1cn(-c2ccc3n(c2=O)CCN(Cc2cn(C)c4c(Cl)cc(Cl)cc24)C3=O)cn1 [compound 259]
